Earlier results, collected in patent publication US11596657B2, “Use of AhR agonist for the preventive or curative treatment of metabolic syndrome and the associated disorders” (INSTITUT NATIONAL DE LA RECHERCHE AGRONOMIQUE, priority 2016, dated 2023).

Assays:
[1] = tested on: male C57Bl/6J mice fed a Western diet
human AhR = molecular target: T1, human AhR (Homo sapiens, UniProt P35869); conditions: potency compared with TCDD
T1 sequence (P35869 11-848): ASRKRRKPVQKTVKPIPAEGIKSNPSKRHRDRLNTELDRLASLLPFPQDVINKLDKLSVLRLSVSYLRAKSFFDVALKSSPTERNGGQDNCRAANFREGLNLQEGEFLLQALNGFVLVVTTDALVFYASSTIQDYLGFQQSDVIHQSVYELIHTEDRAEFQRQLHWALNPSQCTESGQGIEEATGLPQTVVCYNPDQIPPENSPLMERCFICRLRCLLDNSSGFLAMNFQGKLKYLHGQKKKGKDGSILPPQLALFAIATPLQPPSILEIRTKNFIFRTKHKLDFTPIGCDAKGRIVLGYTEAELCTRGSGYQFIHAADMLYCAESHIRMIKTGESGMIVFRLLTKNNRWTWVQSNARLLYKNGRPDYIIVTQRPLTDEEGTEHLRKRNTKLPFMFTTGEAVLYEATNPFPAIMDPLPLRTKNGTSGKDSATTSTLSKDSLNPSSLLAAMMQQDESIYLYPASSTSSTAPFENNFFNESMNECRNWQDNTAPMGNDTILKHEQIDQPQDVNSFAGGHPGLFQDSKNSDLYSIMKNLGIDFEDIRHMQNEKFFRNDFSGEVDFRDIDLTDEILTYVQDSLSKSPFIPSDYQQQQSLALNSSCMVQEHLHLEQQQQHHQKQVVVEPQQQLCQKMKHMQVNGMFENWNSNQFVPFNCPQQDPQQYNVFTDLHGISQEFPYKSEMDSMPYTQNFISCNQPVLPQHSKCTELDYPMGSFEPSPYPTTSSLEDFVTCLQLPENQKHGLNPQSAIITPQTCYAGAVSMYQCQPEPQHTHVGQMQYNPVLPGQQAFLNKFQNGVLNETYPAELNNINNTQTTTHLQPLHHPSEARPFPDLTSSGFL

SMILES | obesity, adiposity and liver steatosis [1] | activation of human AhR (human AhR)
O=c1cc(-c2ccccc2)oc2c1ccc1ccccc12 [α-naphthoflavone] | significantly reduce obesity and adiposity and ameliorates liver steatosis | 
Cc1ccccc1N=Nc1ccc(NC(=O)c2ccnn2C)c(C)c1 [CH-223191] | significantly reduce obesity and adiposity and ameliorates liver steatosis | 
Cc1cc(C)c(C=C2C(=O)Nc3ccccc32)[nH]1 [SU5416, 3-(3,5-dimethyl-1H-pyrrol-2-ylmethylene)-1,3-dihydro-indole-2-one] |  | activates the human AhR with a potency approaching TCDD
